Experiments:
[1] = fine, fluffy powder obtained by the process disclosed in EP 0,369,686; cited from earlier work
[2] = Bulk density of crystalline loracarbef monohydrate; type: physicochemical

In the case of `N[C@@H](C(=O)N[C@@H]1C(=O)N2C(C(=O)O)=C(Cl)CC[C@H]12)c1ccccc1.O` [crystalline loracarbef monohydrate, (6R,7S)-7-[(R)-2-amino-2-phenylacetamido]-3-chloro-8-oxo-1-azabicyclo [4.2.0]oct-2-ene-carboxylic acid, monohydrate], the density [1] is given as “approximately 0.2 g/ml”, the bulk density ([2]; crystalline monohydrate prepared from mono N,N-dimethylacetamide monohydrate solvate (Example 2)) is given as “greater than 0.6 g/ml” and the bulk density ([2]; crystalline monohydrate prepared from mono N-methyl pyrrolidone monohydrate solvate (Example 4)) is given as “greater than 0.6 g/ml”. The bulk density ([2]; monohydrate prepared from mono N,N-dimethylacetamide monohydrate solvate or mono N-methylpyrrolidone monohydrate solvate) was ≥ 0.6 g/mL.

Source: patent publication US20060205938A1, “Monohydrate solvates of loracarbef” (priority 2002, published 2006)
